{"source": "patent EP0073276A1", "about": "“A method of increasing the feed efficiency of animals, and compositions for use in such a method” (RORER INTERNATIONAL (OVERSEAS) INC., priority 1981, dated 1983)", "assay_type_in_all_cases": "in vivo", "key": {"poultry": {"tested_on": "poultry", "assay": "Feed efficiency studies on poultry under strict laboratory conditions", "conditions": "disease and parasite-free environment, relative to control animals", "source_text": "Studies on poultry conducted under strict laboratory conditions, that is, in a disease and parasitt -free environment, indicate that the administration of feed efficiency agents, such as the amidinoureas defined in formulae I-VI and in particular 1-(2,6-dimethylphenyl)-3-methylamidinourea, results in an increase in the feed conversion ratio and weight gain of the treated animal relative to that of the control animals. The % improvement in the feed conversion ratio in the treated animals as compared with the controls is expressed by: • Body Weight Gain of Body Weight Gain of [formula]"}, "[1]": {"tested_on": "Swiss-Webster male mice or Sprague-Dawley male rats", "assay": "Charcoal motility (intestinal transit of a charcoal suspension)", "conditions": "oral dose 4 mg/kg, 30 minutes before charcoal; sacrificed 30 minutes after charcoal; species (mice or rats) not given", "experimental": "A charcoal suspension (10 cm /kg of a 10% suspension of activated charcoal, U.S.P. in 0.5% methylcellulose) is given orally either to groups of 10 Swiss-Webster male mice (18-22 g, Taconic Farms) or groups of 5 Sprague-Dawley male rats (120-140 g, Charles River Breeding Labs., Inc.) 30 minutes after an oral dose of drug or control. The animals are sacrificied 30 minutes after receiving the charcoal and the intestines are carefully removed without stretching and placed lengthwise on moist paper. The length of the intestine (pyloric sphincter to caecum) and the distance travelled by the charcoal as a fraction of that length are evaluated for each animal and group means are compared and expressed as percentage inhibition; [formula] For estimation of the duration of inhibition, the interval between dosing with drug and the administration of charcoal is varied from 30 minutes to 6 hours."}, "Male Sprague-Dawley rats": {"tested_on": "Male Sprague-Dawley rats", "assay": "Gastric emptying test (Amberlite pellet retention in the stomach)", "conditions": "Rattus norvegicus, 30 minutes before 30 pellets, pellets counted four hours later; for inhibition at 10 mg/kg: oral dose 10 mg/kg; for inhibition at 0.25 mg/kg: oral dose 0.25 mg/kg; for inhibition at 0.5 mg/kg: oral dose 0.5 mg/kg", "experimental": "The gastric emptying test is performed essentially as described by Brodie in Gastroenterology 50, 45-50 (1966). Male Sprague-Dawley rats (groups of five) are dosed orally with the test compounds or controls 30 minutes before the oral administration of 30 Amerlite pellets (Rohm & Haas Amberlite IRA-93, 1 mm diameter) suspended in 1 cm3 distilled water. The animals are killed with pentobarbital four hours after the pellets are given; the stomachs are removed and the number of pellets remaining in the stomach counted. The control group is compared to the drug treated group using the following formula: %retention = [(mean drug- treated) - (mean control) / 30-(mean control)] X 100."}}}
{"smiles": "CNC(=N)NC(=O)Nc1c(C)cccc1C", "note": "[1-(2,6-dimethylphenyl)-3-methylamidinourea]", "values": [{"measurement": "feed conversion ratio", "setting": "poultry", "result": "increase"}, {"measurement": "weight gain", "setting": "poultry", "result": "increase"}]}
{"smiles": "N=C(N)NC(=O)Nc1c(Br)cccc1Br", "note": "[R'=Br, R\"=Br, Rm=H, R6=H, R1=H]", "values": [{"measurement": "inhibition at 4 mg/kg", "setting": "[1]", "result": 91, "unit": "%"}]}
{"smiles": "Cc1cccc(Br)c1NC(=O)NC(=N)N", "note": "[R'=Br, R\"=CH3, Rm=H, R6=H, R1=H]", "values": [{"measurement": "inhibition at 4 mg/kg", "setting": "[1]", "result": 89, "unit": "%"}]}
{"smiles": "CNC(=N)NC(=O)Nc1c(C)ccc(Br)c1C", "note": "[R'=CH3, R\"=CH3, Rm=3Br, R6=H, R1=CH3]", "values": [{"measurement": "inhibition at 4 mg/kg", "setting": "[1]", "result": 22, "unit": "%"}]}
{"smiles": "Cc1cc(C)c(NC(=O)NC(=N)N)c(C)c1", "note": "[R'=CH3, R\"=CH3, Rm=4-CH3, R6=H, R1=H]", "values": [{"measurement": "inhibition at 10 mg/kg", "setting": "Male Sprague-Dawley rats", "result": 45, "unit": "%"}]}
{"smiles": "CCCNC(=N)NC(=O)Nc1c(C)cc(C)cc1C", "note": "[R'=CH3, R\"=CH3, Rm=4-CH3, R6=H, R1=n-Pr]", "values": [{"measurement": "inhibition at 4 mg/kg", "setting": "[1]", "result": 15, "unit": "%"}]}
{"smiles": "Cc1cccc(C)c1N(C)C(=O)NC(=N)N", "note": "[R'=CH3, R\"=CH3, Rm=H, R6=CH3, R1=H]", "values": [{"measurement": "inhibition at 2 mg/kg", "setting": "Male Sprague-Dawley rats; oral dose 2 mg/kg", "result": 55, "unit": "%"}]}
{"smiles": "Cc1cccc(C)c1NC(=O)NC(=N)N", "note": "[R'=CH3, R\"=CH3, Rm=H, R6=H, R1=H]", "values": [{"measurement": "inhibition at 0.25 mg/kg", "setting": "Male Sprague-Dawley rats", "result": 55, "unit": "%"}]}
{"smiles": "CCCCN(C(=O)NC(=N)N)c1c(C)cccc1C", "note": "[R'=CH3, R\"=CH3, Rm=H, R6=n-Bu, R1=H]", "values": [{"measurement": "inhibition at 4 mg/kg", "setting": "[1]", "result": 72, "unit": "%"}]}
{"smiles": "Cc1cc(Cl)ccc1NC(=O)NC(=N)N", "note": "[R'=CH3, R\"=H, Rm=4-Cl, R6=H, R1=H]", "values": [{"measurement": "inhibition at 10 mg/kg", "setting": "Male Sprague-Dawley rats", "result": 28, "unit": "%"}]}
{"smiles": "CNC(=N)NC(=O)Nc1ccccc1C", "note": "[R'=CH3, R\"=H, Rm=H, R6=H, R1=CH3]", "values": [{"measurement": "inhibition at 4 mg/kg", "setting": "[1]", "result": 11, "unit": "%"}]}
{"smiles": "Cc1ccccc1NC(=O)NC(=N)N", "note": "[R'=CH3, R\"=H, Rm=H, R6=H, R1=H]", "values": [{"measurement": "inhibition at 10 mg/kg", "setting": "Male Sprague-Dawley rats", "result": 54, "unit": "%"}]}
{"smiles": "Cc1cccc([N+](=O)[O-])c1NC(=O)NC(=N)N", "note": "[R'=CH3, R\"=NO2, Rm=H, R6=H, R1=H]", "values": [{"measurement": "inhibition at 4 mg/kg", "setting": "[1]", "result": 82, "unit": "%"}]}
{"smiles": "Cc1cccc(Cl)c1N(C)C(=O)NC(=N)N", "note": "[R'=Cl, R\"=CH3, Rm=H, R6=CH3, R1=H]", "values": [{"measurement": "inhibition at 4 mg/kg", "setting": "[1]", "result": 82, "unit": "%"}]}
{"smiles": "Cc1cccc(Cl)c1NC(=O)NC(=N)N", "note": "[R'=Cl, R\"=CH3, Rm=H, R6=H, R1=H]", "values": [{"measurement": "inhibition at 0.25 mg/kg", "setting": "Male Sprague-Dawley rats", "result": 43, "unit": "%"}]}
{"smiles": "N=C(N)NC(=O)Nc1c(Cl)cc(Br)cc1Cl", "note": "[R'=Cl, R\"=Cl, Rm=4Br, R6=H, R1=H]", "values": [{"measurement": "inhibition at 40 mg/kg", "setting": "Male Sprague-Dawley rats; oral dose 40 mg/kg", "result": 54, "unit": "%"}]}
{"smiles": "N=C(N)NC(=O)Nc1c(Cl)cccc1Cl", "note": "[R'=Cl, R\"=Cl, Rm=H, R6=H, R1=H]", "values": [{"measurement": "inhibition at 0.125 mg/kg", "setting": "Male Sprague-Dawley rats; oral dose 0.125 mg/kg", "result": 54, "unit": "%"}]}
{"smiles": "N=C(N)NC(=O)Nc1c(F)cccc1Cl", "note": "[R'=Cl, R\"=F, Rm=H, R6=H, R1=H]", "values": [{"measurement": "inhibition at 0.25 mg/kg", "setting": "Male Sprague-Dawley rats", "result": 60, "unit": "%"}]}
{"smiles": "Cc1ccc(NC(=O)NC(=N)N)c(Cl)c1", "note": "[R'=Cl, R\"=H, Rm=4-CH3, R6=H, R1=H]", "values": [{"measurement": "inhibition at 10 mg/kg", "setting": "Male Sprague-Dawley rats", "result": 40, "unit": "%"}]}
{"smiles": "N=C(N)NC(=O)Nc1ccc(Cl)cc1Cl", "note": "[R'=Cl, R\"=H, Rm=4-Cl, R6=H, R1=H]", "values": [{"measurement": "inhibition at 10 mg/kg", "setting": "Male Sprague-Dawley rats", "result": 85, "unit": "%"}]}
{"smiles": "CCc1cccc(C)c1NC(=O)NC(=N)N", "note": "[R'=ET, R\"=CH3, Rm=H, R6=H, R1=H]", "values": [{"measurement": "inhibition at 0.5 mg/kg", "setting": "Male Sprague-Dawley rats", "result": 30, "unit": "%"}]}
{"smiles": "CCc1cccc(CC)c1N(C)C(=O)NC(=N)N", "note": "[R'=ET, R\"=ET, Rm=H, R6=CH3, R1=H]", "values": [{"measurement": "inhibition at 4 mg/kg", "setting": "[1]", "result": 12, "unit": "%"}]}
{"smiles": "CCc1cccc(CC)c1NC(=O)NC(=N)N", "note": "[R'=ET, R\"=ET, Rm=H, R6=H, R1=H]", "values": [{"measurement": "inhibition at 2.5 mg/kg", "setting": "Male Sprague-Dawley rats; oral dose 2.5 mg/kg", "result": 83, "unit": "%"}]}
{"smiles": "N=C(N)NC(=O)Nc1ccc(Cl)c(Cl)c1", "note": "[R'=H, R\"=H, Rm=3-Cl 4-Cl, R6=H, R1=H]", "values": [{"measurement": "inhibition at 10 mg/kg", "setting": "Male Sprague-Dawley rats", "result": 74, "unit": "%"}]}
{"smiles": "CCNC(=N)NC(=O)Nc1ccc(N)cc1", "note": "[R'=H, R\"=H, Rm=4-NH2, R6=H, R1=ET]", "values": [{"measurement": "inhibition at 4 mg/kg", "setting": "[1]", "result": 20, "unit": "%"}]}
{"smiles": "N=C(N)NC(=O)Nc1ccc([N+](=O)[O-])cc1", "note": "[R'=H, R\"=H, Rm=4NO2, R6=H, R1=H]", "values": [{"measurement": "inhibition at 10 mg/kg", "setting": "Male Sprague-Dawley rats", "result": 59, "unit": "%"}]}
{"smiles": "COc1cccc(C)c1NC(=O)NC(=N)N", "note": "[R'=OCH3, R\"=CH3, Rm=H, R6=H, R1=H]", "values": [{"measurement": "inhibition at 0.5 mg/kg", "setting": "Male Sprague-Dawley rats", "result": 70, "unit": "%"}]}
